These results are taken from KR20180000079A, “Kahweol을 포함하는 항비만 조성물” (경북대학교 산학협력단, priority 2016, dated 2018).

Common to all, as to format: cell-based, mouse
Data set [1] relates to C/EBPα. The data set is described as follows: RT-PCR, C/EBPα mRNA expression in 3T3-L1 cells. The settings on record: 40 μM.
Data set [2] deals with adiponectin [아디포넥틴]. The data set can be described thus: RT-PCR, adiponectin mRNA expression in 3T3-L1 cells. The settings on record: 40 μM.
In data set [3] the test system is 3T3-L1 preadipocytes [3T3-L1 전구 지방세포]. The data set can be described thus: MTT assay, cytotoxicity in 3T3-L1 preadipocytes. Conditions: 3T3-L1 cells, 4 or 40 μM, 24 or 48 h. A general note: Tetrazolium dyes change colour on reduction, which living cells bring about.
The test system of data set [4] is 3T3-L1 adipocytes [3T3-L1 지방세포]. The data set can be described thus: Oil Red O staining: differentiation and lipid accumulation in 3T3-L1 cells.
The subject of data set [5] is adiponectin [아디포넥틴]. The data set can be described thus: Western blot, adiponectin protein expression in 3T3-L1 adipocytes. Conditions: 40 μM.
Data set [6] relates to PPARγ. The data set can be described thus: Western blot, PPARγ protein expression in 3T3-L1 adipocytes. The settings on record: 40 μM. In general terms: Immunoblotting shows a protein as a band on a membrane.
Data set [7] relates to C/EBPα. The data set can be described thus: Western blot, C/EBPα protein expression in 3T3-L1 adipocytes. Conditions: 40 μM.
Data set [8] deals with PPARγ. The data set is described as follows: RT-PCR, PPARγ mRNA expression in 3T3-L1 cells. Conditions: 40 μM.
The test system of data set [9] is 3T3-L1 adipocytes [3T3-L1 지방세포]. The data set can be described thus: Triglyceride (TG) quantification in 3T3-L1 cells (colorimetric kit).

Turning to `C[C@@]12C=Cc3occc3[C@H]1CC[C@@]13C[C@@H](CC[C@H]12)[C@@](O)(CO)C3` [Kahweol], the “C/EBPα mRNA level” value in [1] is reported as “현저히 감소”. Further, in data set [2], the “adiponectin mRNA level” value was “감소”. Further, the cytotoxic effect entry in data set [3] is given as “세포 독성 효과를 보이지 않았다”. The “differentiation of 3T3-L1 cells” value in data set [4] (40 μM, 8 days) is given as “분화가 억제됨”. Besides, the cell morphology result in [4] (40 μM, 8 days, similar to preadipocytes (Fig. 3A)) is “소형 스핀들-형상 형태”. Further, in data set [4] (3T3-L1 cells, 40 μM), the “lipid accumulation inhibitory activity compared with positive control” value is reported as “양성 대조군 보다 우수한”. The intracellular lipid accumulation entry in [4] (3T3-L1 cells, Oil Red O) is “억제함”. Moreover, the adiponectin protein expression result in data set [5] is reported as “억제됨”. In data set [6], the PPARγ protein expression result was “억제됨”. Besides, in data set [7], the C/EBPα protein expression result is “억제됨”. Besides, the “PPARγ mRNA level” value in data set [8] is “현저히 감소”. Also, the TG formation result in [9] is listed as “억제함”. Also, the “TG formation inhibitory activity compared with positive control” value in data set [9] (40 μM) is “양성 대조군 보다 우수한”. For the same compound, the inhibition at 40 µM in [9] (Mus musculus, 40 μM, read-out: decrease of intracellular TG level) is 43.3%.
